Consider 7 molecules from patent US20260256925A1, “INDAZOLE DERIVATIVES AS ESTROGEN RECEPTOR DEGRADERS” (REGENTS OF THE UNIVERSITY OF MICHIGAN, priority 2022, published 2026).

Some results are limits rather than exact numbers.

This assay deals with T1, ER (Homo sapiens, UniProt P03372).
T1 construct: endogenous in cells; probably T47D or MCF-7
T1 sequence (P03372 1-595): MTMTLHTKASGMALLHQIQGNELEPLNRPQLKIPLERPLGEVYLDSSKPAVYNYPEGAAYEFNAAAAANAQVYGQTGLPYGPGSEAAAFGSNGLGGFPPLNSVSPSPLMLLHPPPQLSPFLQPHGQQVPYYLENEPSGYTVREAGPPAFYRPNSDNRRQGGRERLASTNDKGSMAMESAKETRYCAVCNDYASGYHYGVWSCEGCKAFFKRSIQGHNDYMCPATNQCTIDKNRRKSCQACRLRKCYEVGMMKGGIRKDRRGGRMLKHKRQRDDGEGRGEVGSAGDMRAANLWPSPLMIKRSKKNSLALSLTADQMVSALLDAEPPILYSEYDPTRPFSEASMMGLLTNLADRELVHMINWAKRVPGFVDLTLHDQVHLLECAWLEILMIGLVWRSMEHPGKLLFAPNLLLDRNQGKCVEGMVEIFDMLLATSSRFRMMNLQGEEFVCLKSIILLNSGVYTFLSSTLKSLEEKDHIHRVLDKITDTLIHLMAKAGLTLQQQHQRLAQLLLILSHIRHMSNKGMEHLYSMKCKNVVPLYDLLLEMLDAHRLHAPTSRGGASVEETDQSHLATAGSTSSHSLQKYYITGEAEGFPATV
The assay can be described thus: In-cell western blot analysis, relative ER percentage (compounds B1-B126). The class given is cell-based. To be noted: ER degradation, 16 hours, read-out: ICW DC50. On the procedure: In-cell western blot analysis. Cells are seeded in multi-well plates (e.g., at 40,000 or 10,000 cells/well). Diluted compounds at certain concentration are added (final 0.5% DMSO) and cells are incubated for a certain period of time (e.g., 16 hours). Formaldehyde (e.g., PBS: FA=9:1) is added and followed by washing with PBS. The cells are blocked with Licor blocking buffer (Li-Cor). The relative ER percentage in treated cells are obtained by comparing the values of treated wells to those in untreated and DMSO-treated wells as 100%.
In-cell western blot analysis. a. seed cells in black-sided/clear bottom 96- or 384-well plates at 40,000 or 10,000 cells/well, overnight; b. add diluted compounds (final 0.5% DMSO), 16 hours. […] RT 2h, gentle shaking. Negative control: cells plus secondary antibodies (no primary antibodies); e. wash×4 with PBS +0.05-0.1% Tween 20, gentel shaking; f. anti-rabbit-680 and anti-mouse-800 (both 1:1000 in LiCor block+0.05% Tween20, RT 1h, gentle shaking, no light. LI-COR: 0.2% to reduce background; g. wash×4 with PBS+0.05% Tween 20, gental shaking; h. add 100 μL or 25 μL of PBS to each well and read on CLX plate reader. The relative ER percentage in treated cells were obtained by comparing the values of treated wells to those in untreated and DMSO-treated wells as 100%.
In general, DC50 refers to the midpoint of the concentration-degradation curve. Take “3-((R)-7-((7-(6-((6S,8R)-7-(2,2- difluoroethyl)-8-methyl-6,7,8,9- tetrahydro-3H-pyrazolo[4,3- f]isoquinolin-6-yl)pyridin-3-yl)-7- azaspiro[3.5]nonan-2-yl)mcthyl)-1- oxo-1,3,5,5a,6,7,8,9-octahydro-2H- pyrazino[1′,2′:4,5][1,4]oxazino[2,3- e]isoindol-2-yl)piperidine-2,6- dione [Compound B83]”: the DC50 was over 100 nM. Regarding `C[C@@H]1Cc2c(ccc3[nH]ncc23)[C@@H](c2ccc(N3CCC4(CCN(CC(=O)N5Cc6cc7c(cc6C5)C(=O)N(C5CCC(=O)NC5=O)C7=O)CC4)CC3)cn2)N1CC(F)F` (stereo partly drawn) [Compound B50, 6-(2-(9-(6-((6S,8R)-7-(2,2-difluoroethyl)-8-methyl-6,7,8,9-tetrahydro-3H-pyrazolo[4,3-f]isoquinolin-6-yl)pyridin-3-yl)-3,9-diazaspiro[5.5]undecan-3-yl)acetyl)-2-(2,6-dioxopiperidin-3-yl)-6,7-dihydropyrrolo[3,4-f]isoindole-1,3(2H,5H)-dione], the DC50 is over 100 nM. Next, `COc1cc(N2CCC3(CC2)CC(CN2CCC4(CC2)COc2c4ccc4c2CN(C2CCC(=O)NC2=O)C4=O)C3)ccc1[C@@H]1c2ccc3[nH]ncc3c2C[C@@H](C)N1CC(F)F` (stereo partly drawn) [Compound B56, 3-(1′-((7-(4-((6S,8R)-7-(2,2-difluoroethyl)-8-methyl-6,7,8,9-tetrahydro-3H-pyrazolo[4,3-f]isoquinolin-6-yl)-3-methoxyphenyl)-7-azaspiro[3.5]nonan-2-yl)methyl)-6-oxo-6,8-dihydro-2H,7H-spiro[furo[2,3-e]isoindole-3,4′-piperidin]-7-yl)piperidine-2,6-dione]: over 100 nM. As for `C[C@@H]1Cc2c(ccc3[nH]ncc23)[C@@H](c2c(F)cc(C3=CCC(C(=O)N4CCC(N5Cc6cc7c(cc6C5)C(=O)N(C5CCC(=O)NC5=O)C7=O)CC4)CC3)cc2F)N1CC(F)F` (stereo partly shown) [Compound B102], the figure is over 100 nM; as for `C[C@@H]1Cc2c(ccc3[nH]ncc23)[C@@H](c2cnc(N3CCC4(CC3)CC(CN3CCN5c6cc7c(cc6OC[C@@H]5C3)C(=O)N(C3CCC(=O)NC3=O)C7)C4)nc2)N1CC(F)(F)F` (stereo partly drawn) [Compound B113, 3-((S)-3-((7-(5-((6S,8R)-8-methyl-7-(2,2,2-trifluoroethyl)-6,7,8,9-tetrahydro-3H-pyrazolo[4,3-f]isoquinolin-6-yl)pyrimidin-2-yl)-7-azaspiro[3.5]nonan-2-yl)mcthyl)-8-oxo-1,2,3,4,4a,5,8,10-octahydro-9H-pyrazino[1′,2′:4,5][1,4]oxazino[2,3-f]isoindol-9-yl)piperidine-2,6-dione], under 10 nM. Turning to `C[C@H]1Cc2c(ccc3[nH]ncc23)[C@H](c2cnc(N3CCC4(CC3)CC(CN3CCN5c6cc7c(cc6OC[C@H]5C3)C(=O)N(C3CCC(=O)NC3=O)C7)C4)nc2)N1CC(F)(F)F` (stereo partly drawn) [Compound B118, 3-((R)-3-((7-(5-((6R,8S)-8-methyl-7-(2,2,2-trifluoroethyl)-6,7,8,9-tetrahydro-3H-pyrazolo[4,3-f]isoquinolin-6-yl)pyrimidin-2-yl)-7-azaspiro[3.5]nonan-2-yl)methyl)-8-oxo-1,2,3,4,4a,5,8,10-octahydro-9H-pyrazino[1′,2′:4,5][1,4]oxazino[2,3-f]isoindol-9-yl)piperidine-2,6-dione], the DC50 is 10 to 100 nM. Next, `C[C@H]1Cc2c(ccc3[nH]ncc23)[C@H](c2ccc(N3CCC4(CC3)CC(CN3CCN(c5ccc(NC6CCC(=O)NC6=O)cc5F)CC3)C4)cn2)N1CC(F)(F)F` (stereo partly drawn) [Compound B120, 3-((3-fluoro-4-(4-((7-(6-((6R,8S)-8-methyl-7-(2,2,2-trifluoroethyl)-6,7,8,9-tetrahydro-3H-pyrazolo[4,3-f]isoquinolin-6-yl)pyridin-3-yl)-7-azaspiro[3.5]nonan-2-yl)methyl)piperazin-1-yl)phenyl)amino)piperidine-2,6-dione]: over 100 nM.
